The values that follow are results of earlier work, collected in patent publication US12454714B2, “Monbretin A (MbA) synthesis using a heterologous nucleic acid(s) encoding A MbA pathway enzyme” (The University of British Columbia, priority 2018, dated 2025).

Data set [1] concerns the target T1, human pancreatic α-amylase (HPA) (Homo sapiens, UniProt P04746).
T1 sequence (P04746 16-511): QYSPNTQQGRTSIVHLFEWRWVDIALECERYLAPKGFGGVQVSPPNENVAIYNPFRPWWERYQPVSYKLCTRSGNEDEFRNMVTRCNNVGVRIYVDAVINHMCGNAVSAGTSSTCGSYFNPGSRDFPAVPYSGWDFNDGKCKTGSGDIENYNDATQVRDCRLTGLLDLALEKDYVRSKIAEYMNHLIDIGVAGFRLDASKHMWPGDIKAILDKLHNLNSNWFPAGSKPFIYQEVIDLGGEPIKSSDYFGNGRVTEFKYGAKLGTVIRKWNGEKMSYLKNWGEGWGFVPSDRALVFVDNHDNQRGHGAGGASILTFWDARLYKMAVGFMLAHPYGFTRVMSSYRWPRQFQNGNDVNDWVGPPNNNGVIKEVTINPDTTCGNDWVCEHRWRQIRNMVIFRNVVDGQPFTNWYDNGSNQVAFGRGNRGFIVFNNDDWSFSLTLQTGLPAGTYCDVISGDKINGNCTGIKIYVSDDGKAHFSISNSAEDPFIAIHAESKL

For the next data set, the system named is gut α-glucosidases. The conditions noted are these: selectivity versus HPA.
Data set [2] deals with “Zucker diabetic fatty” rats.

Several values for one entry are separate records, joined by “and”; a condition that tells them apart may be missing. Equal values may be shown once. Read-outs that look alike come from different tables or passages of the source.

The Ki is a dissociation constant, usually derived from enzyme kinetics or from competition with a known ligand. For the compound `CC1OC(OC2COC(Oc3c(O)cc(-c4oc5cc(O)cc(O)c5c(=O)c4OC4OC(C)C(O)C(O)C4OC4OC(COC(=O)C=Cc5ccc(O)c(O)c5)C(O)C(O)C4OC4OC(CO)C(O)C(O)C4O)cc3O)C(O)C2O)C(O)C(O)C1O` [MbA, myricetin 3-O-(glucosyl-6′-O-caffeoyl)-1,2-β-D-glucosyl 1,2-α-L-rhamnoside 4′-O-α-L-rhamnosyl 1,4-β-D-xyloside], in data set [1], the “HPA inhibition, in words” value is “potent and selective inhibitors”; the inhibitory constant (Ki) was 8 nM and 8.1 nM. The “effect on the gut α-glucosidases” value in the data set on gut α-glucosidases is given as “does not affect”. The blood-glucose-lowering activity entry in data set [2] is recorded as “effective blood-glucose-lowering”.

With `CC1OC(Oc2c(-c3cc(O)c(O)c(O)c3)oc3cc(O)cc(O)c3c2=O)C(OC2OC(COC(=O)C=Cc3ccc(O)c(O)c3)C(O)C(O)C2OC2OC(CO)C(O)C(O)C2O)C(O)C1O` [MbA-XR^2, myricetin 3-O-(glucosyl-6′-O-caffeoyl)-1,2-β-D-glucosyl 1,2-α-L-rhamnoside], the inhibition constant (Ki) in data set [1] was 42 nM.

As to `CC1OC(Oc2c(-c3cc(O)c(O)c(O)c3)oc3cc(O)cc(O)c3c2=O)C(OC2OC(COC(=O)C=Cc3ccc(O)c(O)c3)C(O)C(O)C2O)C(O)C1O` [mini-MbA, myricetin 3-O-(6′-O-caffeoyl)-β-D-glucosyl 1,2-α-L-rhamnoside], in data set [1], the “HPA inhibition, in words” value was “potent and selective inhibitors”; the Ki is 93 nM. For the same compound, the Ki in data set [1] (listed as Mini-MbA) was 90 nM.
